Tests used:
SARS-CoV-2 PsV = assay: microbe, parasite or virus in culture; type: cell-based; conditions: for IC50: Severe acute respiratory syndrome coronavirus 2, 293T/ACE2, 48 h, read-out: IC50 (50% inhibitory concentration) against infection of 293T-ACE2 cells by SARS-CoV-2 PsV
VSV-G PsV = type: cell-based
293T-ACE2 cells = assay: Cytotoxicity assay; type: cell-based; conditions: MTT
SARS-CoV-2 S-trimer = SARS-CoV-2 S-trimer (Severe acute respiratory syndrome coronavirus 2, UniProt P0DTC2); assay: biochemical; type: binding
SARS-CoV-2 S2 subunit = SARS-CoV-2 S2 subunit (Severe acute respiratory syndrome coronavirus 2, UniProt P0DTC2); type: binding
Vero-E6 cells = assay: Cytotoxicity assay; type: cell-based; conditions: MTT
[1] = target: SARS-CoV-2 S binding to the ACE2 receptor (Severe acute respiratory syndrome coronavirus 2, UniProt P0DTC2)
[2] = tested on: SARS-CoV-2 S protein mediated membrane fusion of Vero-E6 cells; type: cell-based

C[C@@H]1O[C@@H](O[C@H]2[C@H](O[C@H]3CC[C@]4(C)[C@H]5CC=C6[C@@H]7CC(C)(C)CC[C@]7(C(=O)NCc7cccs7)CC[C@@]6(C)[C@]5(C)CC[C@H]4C3(C)C)O[C@H](CO)[C@@H](O[C@@H]3O[C@@H](C)[C@H](O)[C@@H](O)[C@H]3O)[C@@H]2O)[C@H](O)[C@H](O)[C@H]1O [Compound 12i, N-{3β-O-[2,4-di-O-(a-L-rhamnopyranosyl)-β-D-glucopyranosyl]-olean-12-en-28-oyl}-2-thiophenemethylamine]
IC50 (SARS-CoV-2 PsV): < 6 µM | Inhibition of VSV-G pseudoviral transduction (VSV-G PsV): no effect

C[C@@H]1O[C@@H](O[C@H]2[C@H](O[C@H]3CC[C@]4(C)[C@H]5CC=C6[C@@H]7CC(C)(C)CC[C@]7(C(=O)NCc7ccco7)CC[C@@]6(C)[C@]5(C)CC[C@H]4C3(C)C)O[C@H](CO)[C@@H](O[C@@H]3O[C@@H](C)[C@H](O)[C@@H](O)[C@H]3O)[C@@H]2O)[C@H](O)[C@H](O)[C@H]1O [Compound 12h, N-{3β-O-[2,4-di-O-(a-L-rhamnopyranosyl)-β-D-glucopyranosyl]-olean-12-en-28-oyl}-2-furyl-methylamin]
Potency against SARS-CoV-2 PsV (SARS-CoV-2 PsV): lacked potency

C[C@@H]1O[C@@H](O[C@H]2[C@H](O[C@H]3CC[C@]4(C)[C@H]5CC=C6[C@@H]7CC(C)(C)CC[C@]7(C(=O)NCc7ccccn7)CC[C@@]6(C)[C@]5(C)CC[C@H]4C3(C)C)O[C@H](CO)[C@@H](O[C@@H]3O[C@@H](C)[C@H](O)[C@@H](O)[C@H]3O)[C@@H]2O)[C@H](O)[C@H](O)[C@H]1O [Compound 12g, N-{3β-O-[2,4-di-O-(a-L-rhamnopyranosyl)-β-D-glucopyranosyl]-olean-12-en-28-oyl}-2-pyridinemethanamine]
Potency against SARS-CoV-2 PsV (SARS-CoV-2 PsV): loss of potency

C[C@@H]1O[C@@H](O[C@H]2[C@H](O[C@H]3CC[C@]4(C)[C@H]5CC=C6[C@@H]7CC(C)(C)CC[C@]7(C(=O)OCc7ccccc7)CC[C@@]6(C)[C@]5(C)CC[C@H]4C3(C)C)O[C@H](CO)[C@@H](O[C@@H]3O[C@@H](C)[C@H](O)[C@@H](O)[C@H]3O)[C@@H]2O)[C@H](O)[C@H](O)[C@H]1O [Compound 2, 3β-O-[2,4-di-O-(α-L-rhamnopyranosyl)-β-D-glucopyranosyl]-olean-12-en-28-oic acid benzyl ester]
Cytotoxicity against 293T-ACE2 cells (293T-ACE2 cells): moderate cytotoxicity

COc1ccccc1NC(=O)[C@]12CCC(C)(C)C[C@H]1C1=CC[C@@H]3[C@@]4(C)CC[C@H](O[C@@H]5O[C@H](CO)[C@@H](O[C@@H]6O[C@@H](C)[C@H](O)[C@@H](O)[C@H]6O)[C@H](O)[C@H]5O[C@@H]5O[C@@H](C)[C@H](O)[C@@H](O)[C@H]5O)C(C)(C)[C@@H]4CC[C@@]3(C)[C@]1(C)CC2 [Compound 12b, N-{3β-O-[2,4-di-O-(a-L-rhamnopyranosyl)-β-D-glucopyranosyl]-olean-12-en-28-oyl}-2-methoxyaniline]
IC50 (SARS-CoV-2 PsV): < 6 µM | Inhibition of VSV-G pseudoviral transduction (VSV-G PsV): no effect

C[C@@H]1O[C@@H](O[C@H]2[C@H](O[C@H]3CC[C@]4(C)[C@H]5CC=C6[C@@H]7CC(C)(C)CC[C@]7(C(=O)NCc7ccccc7F)CC[C@@]6(C)[C@]5(C)CC[C@H]4C3(C)C)O[C@H](CO)[C@@H](O[C@@H]3O[C@@H](C)[C@H](O)[C@@H](O)[C@H]3O)[C@@H]2O)[C@H](O)[C@H](O)[C@H]1O [Compound 12k, N-{3β-O-[2,4-di-O-(a-L-rhamnopyranosyl)-β-D-glucopyranosyl]-olean-12-en-28-oyl}-2-fluorobenzylamine]
IC50 (SARS-CoV-2 PsV): < 6 µM | Inhibition of VSV-G pseudoviral transduction (VSV-G PsV): no effect

C[C@@H]1O[C@@H](O[C@H]2[C@H](O[C@H]3CC[C@]4(C)[C@H]5CC=C6[C@@H]7CC(C)(C)CC[C@]7(C(=O)NCc7ccccc7)CC[C@@]6(C)[C@]5(C)CC[C@H]4C3(C)C)O[C@H](CO)[C@@H](O[C@@H]3O[C@@H](C)[C@H](O)[C@@H](O)[C@H]3O)[C@@H]2O)[C@H](O)[C@H](O)[C@H]1O [Compound 12f, N-{3β-O-[2,4-di-O-(a-L-rhamnopyranosyl)-β-D-glucopyranosyl]-olean-12-en-28-oyl}-benzylamine]
Cytotoxicity against 293T-ACE2 cells (293T-ACE2 cells): negligible cytotoxicity | Inhibition of VSV-G pseudoviral transduction (VSV-G PsV): no inhibition | Kd (SARS-CoV-2 S-trimer): 940 nM | Fold higher affinity with S2 subunit in relation to S1 subunit (SARS-CoV-2 S2 subunit): more than 1000 fold | Cytotoxicity against Vero-E6 cells (Vero-E6 cells): negligible cytotoxicity | Effect on SARS-CoV-2 S binding to the ACE2 receptor [1]: no effect | Inhibition of membrane fusion mediated by SARS-CoV-2 S protein [2]: remarkably inhibit
